Like-named read-outs stand apart in the source and are kept apart here.
What was measured:
human GR = molecular target: T1, human GR (Homo sapiens, UniProt P04150); assay: Transrepression Assay (GITAR), TNFα-β-lactamase reporter gene in U937 cells; assay type: cell-based; conditions: for GITAR Greater than by GRAMMER % SEP: GITAR Emax minus GRAMMER Emax; for EC50: inflection point, U937 cells, read-out: Transrepression U937 Cells GITAR IP
T1 construct: U937 cells contain an endogenous glucocorticoid receptor (GR); endogenous in cells; host or cells: U937 cells stably transfected with the TNF-alpha promoter/beta-lactamase reporter
T1 sequence (P04150 1-777): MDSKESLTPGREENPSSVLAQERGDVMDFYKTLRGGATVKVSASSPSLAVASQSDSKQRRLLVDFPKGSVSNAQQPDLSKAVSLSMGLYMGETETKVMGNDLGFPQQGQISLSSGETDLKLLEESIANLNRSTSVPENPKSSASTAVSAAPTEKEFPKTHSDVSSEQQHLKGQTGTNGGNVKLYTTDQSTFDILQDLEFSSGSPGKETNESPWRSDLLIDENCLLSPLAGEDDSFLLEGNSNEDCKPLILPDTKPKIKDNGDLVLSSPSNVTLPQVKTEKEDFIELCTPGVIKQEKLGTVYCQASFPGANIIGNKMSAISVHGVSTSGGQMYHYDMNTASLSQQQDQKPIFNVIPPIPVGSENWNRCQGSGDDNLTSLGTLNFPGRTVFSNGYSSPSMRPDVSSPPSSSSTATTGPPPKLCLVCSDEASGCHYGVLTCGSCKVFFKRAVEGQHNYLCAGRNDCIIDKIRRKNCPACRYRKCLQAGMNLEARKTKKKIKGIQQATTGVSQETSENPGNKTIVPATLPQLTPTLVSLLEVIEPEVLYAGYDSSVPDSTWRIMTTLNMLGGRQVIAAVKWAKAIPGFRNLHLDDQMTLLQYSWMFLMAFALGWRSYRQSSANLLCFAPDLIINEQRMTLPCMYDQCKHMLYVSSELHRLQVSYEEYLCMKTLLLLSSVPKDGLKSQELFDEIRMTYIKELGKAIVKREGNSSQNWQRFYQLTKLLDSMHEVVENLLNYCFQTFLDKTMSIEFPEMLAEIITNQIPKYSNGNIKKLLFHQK
From the text: Transrepression Assay (GITAR)
This assay assesses the ability of test compounds to control transcription from the TNFα-β-lactamase reporter gene in U937 cells, a human myelomonocytic leukemia cell line that naturally expresses the human GR. The assay measures compound dependent-repression of the TNFa promoter linked to a reporter gene.
The human U937 cells that had been stablely transfected with the TNF-α promoter driving β-lactamase are used for this assay. U937 cells contain an endogenous glucocorticoid receptor (GR). Cells are maintained in RPMI 1640 Growth medium (Gibco Cat#11875-093) containing 25 mM HEPES, 10% FBS, 2 mM L-Glutamine, 1 mM Sodium pyruvate, 25 μg/ml Gentamicin (Gibco Cat#15710-064), 1:1000 2-Mercaptoethanol (Gibco Cat#21985-023) and 0.8 mg/ml G418 (Gibco Cat#10131-027). The density of the cells in the flask needs to be about 1×10^6−3×10^6/ml at the time of harvest. Usually, the cells are split to 1.2˜1.4×10^5/ml (1:10) 3 days prior to the assay. 50,000 cells/well are plated in 96 well black-walled plates the day of assay. Test compounds are added 10 pt/well, and cells are incubated at 37° C. for 30-45 min. For assaying compounds, first dilute 1:10 in DMSO to make 1 mM, then further dilute 1:100 in medium to make 10× stock prior to adding to the cells. Add 50 ng/ml PMA (Sigma, cat# P8139) 10 μL/well to a final concentration 5 ng/ml, and 1 μg/ml LPS (Sigma, cat# L4130) 10 μL/well to a final concentration 100 ng/ml. Incubate cells at 37° C. overnight for ˜18 hr. PMA is stored frozen as 100 μg/ml stock in DMSO. Dilute 1:10 in DMSO for a working stock of 10 μg/ml and store at −20C. For assaying, dilute the […] working stock 1:200 in medium to make a 10× solution (50 ng/ml). Store frozen LPS at 1 mg/ml in PBS, dilute 1:1000 in medium to make 10× (1 μg/ml) for the assay. Add 6× loading buffer (CCF2−AM) 20 μL/well, and incubate at room temperature for 70-90 min. […] The activity repressed by 100 nM dexamethasone alone is set as 100% activity.

Glucocorticoid Receptor = molecular target: T2, Glucocorticoid Receptor (Homo sapiens, UniProt P04150); assay: Trans-Activation Modulation of Glucocorticoid Receptor (GRAMMER), MMTV-LUC reporter gene in A549 cells; assay type: cell-based; conditions: Table 1; for Emax: A549, A549 cells, Emax relative to 300 nM dexamethasone, read-out: Transactivation A549 Cells GRAMMER Emax; for EC50: inflection point, A549 cells, read-out: Transactivation A549 Cells GRAMMER IP
T2 construct: These cells express large amount of the GR and are very responsive to GC treatment; endogenous in cells; host or cells: A549 cells transiently transfected with the MMTV-LUC reporter
T2 sequence (P04150 1-777): T1 sequence (P04150 1-777)
From the text: Trans-Activation Modulation of Glucocorticoid Receptor (GRAMMER)
This assay assesses the ability of test compounds to control transcription from the MMTV-LUC reporter gene in lung adenocarcinoma A549 cells or MDA-MB-453 cells, a human breast cancer cell line that naturally expresses the human GR. The assay measures induction of a modified MMTV LTR/promoter linked to the LUC reporter gene.
The routine transient assay consists of plating 7,000-25,000 cells/well of a white, clear-bottom 96-well plate. Alternatively, 384-well plates can be used at a cell concentration of 10,000/well. The media that the cells are plated in is “exponential growth medium” which consists of phenol red-free RPMI1640 containing 10% FBS, 4 mM L-glutamine, 20 mM HEPES, 10 ug/mL human insulin, and 20 ug/mL gentamicin. Incubator conditions are 37° C. and 5% CO2. The transfection is done in batch mode. The cells are trypsinized and counted to the right cell number in the proper amount of fresh media. It is then gently mixed with the FuGene6/DNA mix and plated onto the 96 or 384-well plate, all the wells receive 100 uL or 40 uL, respectively, of medium+lipid/DNA complex then incubated 37° C. overnight. The transfection cocktail consists of serum-free OptiMEM, FuGene6 reagent and DNA. The manufacturer's (Roche Biochemical) protocol for cocktail setup is as follows: The lipid to DNA ratio is approximately 2.5:1 and the incubation time is 20 min at room temperature. Sixteen to 24 hours after transfection, the cells are treated with dexamethasone to a final concentration of 10 nM as well as the compound of interest, such that final DMSO (vehicle) concentration is equal to or less than 1%. Each plate also contains samples that are treated with 10 nM dexamethasone alone, which is used as the 100% activity control. The cells are exposed to the compounds for 24 hours. After 24 hours, the cells are lysed by a Promega cell culture lysis buffer for approximately 30 min and then the luciferase activity in the extracts is assayed in the 96-well format luminometer. In 384-well format, Steady-Glo (Promega) or Steady-Lite (PerkinElmer) can be used by adding an equal volume of reagent to the media present in each well. Activity induced by 10 nM dexamethasone alone is set at 100% activity. Antagonist activity is calculated by determining the decrease in dexamethasone-induced activity in response to compound treatment relative to samples that were treated with dexamethasone alone. […] This transactivation assay can be performed in an agonist and antagonist mode to identify these different activities.
Activity of test compounds is calculated as the Emax relative to the activity obtained with 300 nM dexamethasone. Activity of test compounds is calculated as the Emax relative to the activity obtained with 300 nM DEX. […] The action of compounds is also tested in an antagonist mode (Anti-GRAMMER) in which the cells are treated with medium containing an agonist such as 10 nM DEX and the ability to agents to inhibit the activation by an agonist is measured.

[1] = molecular target: T3, glucocorticoid receptor (GR) (Homo sapiens, UniProt P04150); assay: Ligand binding assay (GR BIND), 3H-dexamethasone displacement in MDA-MB-453 cell lysate; conditions: GR BIND Ki, Table 1
T3 sequence (P04150 1-777): T1 sequence (P04150 1-777)

[2] = U-937, U937 cells, activity repressed by 100 nM dexamethasone = 100%, Table 1, read-out: Transrepression U937 Cells GITAR Emax
[3] = U-937, text statement, 100 nM dexamethasone = 100%, read-out: maximal activity in the transrepression assay (GITAR)

Row | SMILES | GITAR Greater than by GRAMMER % SEP (human GR; Table 1) | Emax (human GR; [2]) | Emax (human GR; [3]) | EC50 (human GR; Table 1) | Emax (Glucocorticoid Receptor) | EC50 (Glucocorticoid Receptor) | Ki [1]
1 | CC(O)CN(CC(C)O)C(=O)[C@H]1CCC2=Cc3c(cnn3-c3ccc(F)cc3)C[C@@]21C (stereo partly drawn) [Compound 10, (4αR,5S)-1-(4-fluorophenyl)-N,N-bis(2-hydroxypropyl)-4α-methyl-1,4,4α,5,6,7-hexahydrocyclopenta[f]indazole-5-carboxamide] | 19.0% | 59.8% | > 5% | 384 nM | 40.8% | 326 nM | 1.8 nM
2 | CC(C)CN(CC(C)C)C(=O)[C@H]1CCC2=Cc3c(cnn3-c3ccc(F)cc3)C[C@@]21C [Compound 11, (4αR,5S)-1-(4-fluorophenyl)-N,N-diisobutyl-4α-methyl-1,4,4α,5,6,7-hexahydrocyclopenta[f]indazole-5-carboxamide] | 22.2% | 67.5% | > 5% | 328 nM | 45.3% | 177 nM | 1.7 nM
3 | CCCCN(CC)C(=O)[C@H]1CCC2=Cc3c(cnn3-c3ccc(F)cc3)C[C@@]21C [Compound 12, (4αR,5S)-N-butyl-N-ethyl-1-(4-fluorophenyl)-4α-methyl-1,4 ,4α,5,6,7-hexahydrocyclopenta[f]indazole-5-carboxamide] | 26.6% | 56.3% | > 5% | 662 nM | 29.7% | 376 nM | 1.4 nM
4 | C[C@]12Cc3cnn(-c4ccc(F)cc4)c3C=C1CC[C@@H]2C(=O)N(CCC#N)CCC#N [Compound 13, (4αR,5S)-N,N-bis(2-cyanoethyl)-1-(4-fluorophenyl)-4α-methyl-1,4,4α,5,6,7-hexahydrocyclopenta[f]indazole-5-carboxamide] | 13.6% | 28% | > 5% | 1080 nM | 14.4% | 519 nM | 35.3 nM
5 | C[C@]12Cc3cnn(-c4ccc(F)cc4)c3C=C1CC[C@@H]2C(=O)N(CCC#N)C1CC1 [Compound 14, (4αR,5S)-N-(2-cyanoethyl)-N-cyclopropyl-1-(4-fluorophenyl)-4α-methyl-1,4,4α,5,6,7-hexahydrocyclopenta[f]indazole-5-carboxamide] | 27.1% | 38.3% | > 5% | 1590 nM | 11.2% | 1420 nM | 10.8 nM
6 | C[C@]12Cc3cnn(-c4ccc(F)cc4)c3C=C1CC[C@@H]2C(=O)N1CCCC(=O)CC1 [Compound 15, 1-{[(4αR,5S)-1-(4-fluorophenyl)-4α-methyl-1,4,4α,5,6,7-hexahydrocyclopenta[f]indazol-5-yl]carbonyl}azepan-4-one] | 7.2% | 12.5% | > 5% | 3410 nM | 5.3% | 1540 nM | 120 nM
7 | CCCN(C(=O)[C@H]1CCC2=Cc3c(cnn3-c3ccc(F)cc3)C[C@@]21C)C(C)CC (stereo partly drawn) [Compound 16, (4αR,5S)-N-(sec-butyl)-1-(4-fluorophenyl)-4α-methyl-N-propyl-1,4,4α,5,6,7-hexahydrocyclopenta[f]indazole-5-carboxamide] | 28.1% | 61.8% | > 5% | 376 nM | 33.8% | 184 nM | 2.8 nM
8 | CC1CN(C(=O)[C@H]2CCC3=Cc4c(cnn4-c4ccc(F)cc4)C[C@@]32C)CC(C)O1 (stereo partly drawn) [Compound 17, (4αR,5S)-5-[(2,6-dimethylmorpholin-4-yl)carbonyl]-1-(4-fluorophenyl)-4α-methyl-1,4,4α,5,6,7-hexahydrocyclopenta[f]indazole] | 2.3% | 11.8% | > 5% | 1830 nM | 9.4% | 526 nM | 43.6 nM
